Results on 2 compounds are retold here after publication PMC6302903, “Protein and Chemical Determinants of BL-1249 Action and Selectivity for K2P Channels” (ACS Chemical Neuroscience, 2018).

What is called EC50 is the midpoint of the concentration-response curve. Read a high EC50 as a less potent agent.

Common to all, as to type: cell-based
The target of one assay is T1, K2P2.1(TREK-1) (Mus musculus, UniProt P97438).
T1 sequence (P97438 1-411 isoform P97438-2): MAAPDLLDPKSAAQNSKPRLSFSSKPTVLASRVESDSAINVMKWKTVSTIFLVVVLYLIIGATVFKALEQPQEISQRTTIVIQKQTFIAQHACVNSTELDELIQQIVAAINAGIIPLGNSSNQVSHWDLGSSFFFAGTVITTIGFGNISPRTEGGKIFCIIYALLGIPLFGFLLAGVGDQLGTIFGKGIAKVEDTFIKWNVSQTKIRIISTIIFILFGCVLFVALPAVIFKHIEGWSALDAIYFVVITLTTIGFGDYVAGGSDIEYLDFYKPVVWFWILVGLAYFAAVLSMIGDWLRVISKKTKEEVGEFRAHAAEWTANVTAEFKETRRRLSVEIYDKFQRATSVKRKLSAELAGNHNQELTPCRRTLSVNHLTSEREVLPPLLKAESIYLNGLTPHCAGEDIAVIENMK
Nature of the assay: TEVC of K2P2.1(TREK-1) in Xenopus oocytes. On the set-up: expressed in transfected cells; host or cells: Xenopus laevis oocytes injected with mRNA made from pGEMHE/pMO. The text has this:
Constructs for murine K2P channels, including K2P2.1(TREK-1) (Gene ID 16526), K2P10.1(TREK-2) (Gene ID 72258), K2P4.1(TRAAK) (Gene ID 16528), K2P5.1(TASK-2) (Gene ID 16529), K2P3.1(TASK-1) (Gene ID 16527), K2P9.1(TASK-3) (Gene ID 223604), and K2P18.1(TRESK) (Gene ID 332396) in pGEMHE/pMO, were used for Xenopus oocyte experiments as previously described.[10],[26] Murine K2P2.1(TREK-1) (Gene ID 16526) was expressed in HEK-293 cells using a pIRES-EGFP construct as previously described.[26] Murine K2P13.1(THIK-1) (Gene ID 217826) and K2P1.1(TWIK-1) (Gene ID 16525) were cloned into pGEMHE/pMO for use in Xenopus oocytes. Chimeras were designed using EMBOSS Needle pairwise sequence alignment tool[58] to match homologous helices in K2P2.1(TREK-1) and K2P4.1(TRAAK) and were assembled using the Gibson assembly method.[59] Chimera boundaries are Thr152 (TREK-1/AAK M2-C), Trp199 (TREK-1/AAK M3-C), Y272 (TREK-1/AAK M4-C), Thr114 (TRAAK/EK-1 M2-C), Trp161 (TRAAK/EK-1 M3-C), and Tyr234 K2P4.1(TRAAK). All sequences were verified using DNA sequencing.
Xenopus laevis oocytes were harvested in accordance with UCSF IACUC protocol AN129690 and digested in calcium-free ND-96 (96 mM NaCl, 2 mM KCl, 3.8 mM MgCl2) immediately following harvest, as previously described.[6],[10] Digested oocytes were maintained in standard ND96 (96 mM NaCl, 2 mM KCl, 1.8 mM CaCl2, 2 mM MgCl2) with antibiotics (100 units mL^–1 penicillin, 100 μg mL^–1 streptomycin, 50 μg mL^–1 gentimycin). Defolliculated stage V–VI oocytes were injected with 0.2–6.0 ng of mRNA in 50 nL, and currents were recorded 24–48 h after injection. mRNA was synthesized from plasmid DNA using mMessage mMachine Kit (T7 promoter, Ambion, Life Technologies) and purified using RNEasy Kit (Qiagen). Injected oocytes were impaled with two standard microelectrodes (0.2–1.0 MΩ) filled with 3 M KCl and subjected to constant perfusion of standard ND96 during recording. Currents were amplified using the GeneClamp 500B (MDS Analytical Technologies) amplifier controlled by the pClamp software (Molecular Devices). Data were digitized at 1 kHz using Digidata 1332A (MDS Analytical Technologies). For all experiments with small molecules, basal currents were evoked using 1 s long ramps from −150 to +50 mV under constant perfusion of ND96. Once stabilized basal currents were recorded, compounds were perfused at various concentrations in standard ND96 and currents were allowed to increase to stabilization before recording final current. Fold activation upon compound application is expressed as I/I0 (0 mV), derived from the current at 0 mV in the presence of compound divided by the basal current at 0 mV in standard ND96 without compound. Data were analyzed and plotted using Graphpad Prism Version 5 (GraphPad Software, San Diego California USA, www.graphpad.com). […] In the case of BL-1249-acid EC50 estimation, upper bound of I/I0 was set to 20 to account for the strong stimulation of BL-1249-acid.

The next assay has as its target T2, TRAAK/EK-1 M2-C (Mus musculus, UniProt O88454+P97438, A151S/D143N/F160Y/H141A/P165L/Q138H/R166H/S147A/S164V/V139S/V154I).
T2 construct: Thr114 (TRAAK/EK-1 M2-C); expressed in transfected cells; host or cells: Xenopus laevis oocytes, mRNA injected; chimera built by Gibson assembly
Nature of the assay: TEVC of chimera TRAAK/EK-1 M2-C. The conditions noted are these: Xenopus oocytes.

Another assay addresses T3, TRAAK/EK-1 M4-C (Mus musculus, UniProt O88454+P97438, F242V/L235V/N256D/S249A/T252S/T253M).
T3 construct: and Tyr234 K2P4.1(TRAAK); expressed in transfected cells; host or cells: Xenopus laevis oocytes, mRNA injected; chimera built by Gibson assembly
Nature of the assay: TEVC of chimera TRAAK/EK-1 M4-C. The conditions noted are these: Xenopus oocytes.

T3 sequence (O88454+P97438 fused with the stated changes): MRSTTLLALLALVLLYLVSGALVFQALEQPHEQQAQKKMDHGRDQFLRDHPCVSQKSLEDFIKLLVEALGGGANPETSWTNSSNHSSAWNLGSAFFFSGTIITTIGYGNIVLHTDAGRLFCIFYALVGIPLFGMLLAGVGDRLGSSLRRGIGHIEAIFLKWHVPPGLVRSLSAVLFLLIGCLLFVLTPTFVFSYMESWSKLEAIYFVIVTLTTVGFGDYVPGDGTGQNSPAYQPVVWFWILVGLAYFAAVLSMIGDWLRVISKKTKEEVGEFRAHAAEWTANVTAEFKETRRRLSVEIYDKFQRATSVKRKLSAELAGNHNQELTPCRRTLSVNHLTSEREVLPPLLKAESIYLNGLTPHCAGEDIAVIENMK
T2 sequence (O88454+P97438 fused with the stated changes): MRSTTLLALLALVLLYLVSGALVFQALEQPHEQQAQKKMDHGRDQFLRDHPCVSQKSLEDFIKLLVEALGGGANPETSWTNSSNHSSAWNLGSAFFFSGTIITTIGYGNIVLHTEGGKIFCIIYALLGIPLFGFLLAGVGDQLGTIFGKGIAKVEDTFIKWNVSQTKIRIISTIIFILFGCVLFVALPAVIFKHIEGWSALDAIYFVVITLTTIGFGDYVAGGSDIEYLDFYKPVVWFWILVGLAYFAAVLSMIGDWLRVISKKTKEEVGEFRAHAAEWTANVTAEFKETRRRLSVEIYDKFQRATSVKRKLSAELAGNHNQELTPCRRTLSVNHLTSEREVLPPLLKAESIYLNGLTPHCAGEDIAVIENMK

With `c1ccc(-c2nnn[nH]2)c(Nc2cccc3c2CCCC3)c1` [BL-1249, (5,6,7,8-tetrahydro-naphthalen-1-yl)-[2-(1H-tetrazol-5-yl)-phenyl]-amine], the “K2P2.1(TREK-1) current response” value at K2P2.1(TREK-1) (extracellular application of 10 μM) was “clear activation responses”. Further, the EC50 is 5.5 ± 1.2 µM at K2P2.1(TREK-1) (extracellular application, fold activation I/I0 at 0 mV); 28 ± 5 µM at TRAAK/EK-1 M2-C; 45 ± 2 µM on TRAAK/EK-1 M4-C.

`CS(=O)(=O)Nc1ccc(C(=O)NCc2ccc(Cl)cc2Cl)cc1` [ML335]: the “effect on K2P2.1(TREK-1) current (in words)” value at K2P2.1(TREK-1) (dose-response) is “robustly responded”. Besides, the EC50 is 8 ± 1 µM on TRAAK/EK-1 M2-C and above 100 µM at TRAAK/EK-1 M4-C.
